Test results as given in PubChem BioAssay (NCI).
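Each compound was tested at five concentrations against cells in 96-well plates for 48 hours. Abbreviation: GI50, concentration required for 50% inhibition of growth. Definition used: TGI = concentration required for complete inhibition of growth.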

These compounds were tested on DMS 273 small cell lung (assay: NCI-60 cell line screen, 48 h).
`COC(=O)C12C3C4C5(C(=O)OC)C(C1C35C(=O)N(C(C)C)C(C)C)C42C(=O)N(C(C)C)C(C)C` (configuration not stated) was tested, and the TGI was greater than 50 µM.
With `N#CC(C#N)=c1[nH]c2cccc3c2-c2c(cccc2c3=C(C#N)C#N)[nH]1` the TGI was greater than 100 µM.
In the case of `COC(=O)/C=C/C1C(C(=O)OC)C2(C(=O)OC)CCC1(C(=O)OC)N2` (configuration not stated), the TGI is reported as greater than 100 µM.
Compound `N#CC(/C(=N/NC(=O)C(=O)NN)C(=O)NC12CC3CC(CC(C3)C1)C2)c1ccccc1` (configuration not stated) has a TGI greater than 100 µM.
Work on `CC(=O)OCC1OC([S-])C(OC(C)=O)C(OC(C)=O)C1OC(C)=O.CC[PH+](CC)CC.CC[PH+](CC)CC.[Au].[Au]` (configuration not stated) yielded a GI50 of 0.453 µM and a TGI of 2.11 µM.
In the case of `Cc1cc(C)n(CCNCCn2nc(C)cc2C)n1`, the TGI is reported as greater than 100 µM.
Compound `COc1cc2c(cc1OCc1ccccc1)CNCC2` has a TGI greater than 100 µM.
With `O=C(CN1CCCCC1)N1CCc2c([nH]c3ccccc23)C1c1cccnc1` (configuration not stated) the TGI was greater than 100 µM.
Work on `CCCCCCCCCc1cc(=O)c2c(O)cccc2o1` yielded a TGI greater than 100 µM.
For `O=S(O)CCCCSSCc1ccccc1CSSCCCCS(=O)O`, the TGI was greater than 100 µM.
With `CC(C)(C)N1CC2(CCCCC2)C1=O` the TGI was greater than 100 µM.
Compound `O=C(CCC(=O)Nc1cccc(Cl)c1)CC(=O)c1ccc(Cl)cc1` has a TGI greater than 100 µM.
`NC1CCCC[C@H]1N.N[C@@H]1CCCC[C@@H]1N.O=C(P(=O)([O-])[O-])P(=O)([O-])[O-].[Pt+4].[Pt+4]` showed a GI50 of 32.3 µM and a TGI greater than 100 µM.
For `O=C(CSc1nnc(-c2ccccc2NC(=O)C(F)(F)F)c(=O)[nH]1)NC(=O)Nc1ccccc1`, the TGI was greater than 100 µM.
In the case of `COc1ccc(C(=O)C(CO)Oc2ccccc2OC)cc1OC` (configuration not stated), the TGI is reported as greater than 100 µM.

These compounds were tested on DU-145 prostate (assay: NCI-60 cell line screen, 48 h).
Compound `CCOC(=O)N1CCN(C(=O)c2ccc(C(F)(F)F)nc2Nc2cc(Cl)ccc2C)CC1` has a GI50 of 48.2 µM and a TGI greater than 100 µM.
In the case of `O=C(O)c1cc(O)c2c(c1)C(C1c3cc(C(=O)O)cc(O)c3C(=O)c3c(OC4OC(CO)C(O)C(O)C4O)cccc31)c1cccc(OC3OC(CO)C(O)C(O)C3O)c1C2=O` (configuration not stated), the GI50 is reported as greater than 100 µM and the TGI is reported as greater than 100 µM.
`COc1ccc(CNc2c3ccccc3nc3ccccc23)cc1OC` was tested, and the GI50 was 2.8 µM and the TGI was 8.43 µM.
With `COc1cc2cn3c4ccc(O)cc4[nH]c(=O)c3c2cc1OC` the GI50 was 0.0229 µM and the TGI was 1.25 µM.
For `COc1ccc(/C=c2/sc3n(c2=O)C(c2ccc(OC)c(OC)c2)C2=C(N=3)c3cc(F)ccc3OC2)cc1` (configuration not stated), the GI50 was 43.3 µM and the TGI was greater than 100 µM.
`Cc1n(Cc2ccc3ccccc3c2)cc[n+]1Cc1ccc2ccccc2c1` was tested, and the GI50 was 1.87 µM and the TGI was 12.1 µM.
`Cc1cc(NC(=O)c2ccc(C)c(Nc3nccc(-c4cccnc4)n3)c2)cc(-n2cnc(C)c2)c1` was tested, and the GI50 was 1.96 µM and the TGI was 9.06 µM.
For `Cc1[nH]n(-c2cccc(Cl)c2)c(=O)c1/C=C1\C=Nc2ccc(Br)cc21`, the GI50 was 5.71 µM and the TGI was greater than 100 µM.
Compound `CC(=O)c1c(CBr)n([O-])c2ccccc2[n+]1=O` has a GI50 of 12.8 µM and a TGI of 25.5 µM.
`CCCS(=O)(=O)Nc1ccc(Nc2c3ccccc3nc3ccccc23)c(OC)c1` showed a TGI of 4.54 µM.
With `CCN(CC)CC(C)(C)C(=O)/C=C/c1ccc(Cl)c(Cl)c1` the GI50 was 1.41 µM and the TGI was 2.71 µM.
In the case of `Cc1ccc(Nc2nc(N)c(C(=O)c3ccc(C#N)cc3)s2)cc1`, the GI50 is reported as 0.675 µM and the TGI is reported as greater than 100 µM.
`CN1CCc2c(Sc3ccc(C(=O)NO)cc3)c3ccccc3n2C1` was tested, and the GI50 was 2.57 µM and the TGI was 9.37 µM.
For `CC(=O)O[C@@H]1C[C@]2(C(C)C)O[C@@]1(C)[C@@H]1CCC(C)=C1[C@@H]2OC(=O)/C=C/c1ccccc1`, the GI50 was 70.1 µM and the TGI was greater than 100 µM.
With `CCN1C(=O)N(CC)C2C1NC(=S)N2/N=C/C=C/c1cccs1` (configuration not stated) the GI50 was 0.341 µM and the TGI was greater than 100 µM.

The compounds below were run on HCC-2998 colon (assay: NCI-60 cell line screen, 48 h).
`CC(C)(C)C(=O)/C=C/c1ccc(Oc2ccccc2)cc1` gave a TGI greater than 100 µM.
Work on `CC1=C(C(=O)Nc2c(C)cccc2C)C(c2ccccc2Cl)C(C(=O)Nc2c(C)cccc2C)=C(C)N1` yielded a TGI greater than 100 µM.
Work on `O=C1CSC(Cc2nc3ccccc3[nH]2)=N1` yielded a TGI of 36.3 µM.
Compound `CCOC(=O)[C@H](CCCNC(=O)OC(C)(C)C)NCc1ccc(OC)c(OC)c1` has a TGI greater than 100 µM.
In the case of `O=C(/C=C/c1c(O)ccc2ccccc12)c1ccc2ccccc2c1`, the TGI is reported as greater than 100 µM.
`O=[N+]([O-])c1ccc(-n2nnc(C3=NCCCN3)c2-c2ccc(Cl)cc2)cc1` was tested, and the TGI was greater than 100 µM.
